In patent US11311546B2, “Method for enhancing wound healing by administrating adenine” (Energenesis Biomedical Co., Ltd., priority 2017, dated 2022):

Legend:
[1] = tested on: scald burn wound of C57BL/6 mice; test: Scald burns healing; assay type: in vivo; details: 1 to 4,000 μM adenine in normal saline, once daily for 28 days
Method: The C57BL/6 mice approximately at 8 weeks of age were purchased from the National Laboratory Animal Center (NLAC, R.O.C.). The mice were deeply anesthetized by injecting intraperitoneally normal saline mixed with zoletil 50 and 2% rompun in a ratio of 2:1:1 (2 μl per gram of body weight). Each of the mice was shaved by depilatory cream. The shaved dorsal surface of each mice was sterilized with 70% ethanol and then the mice were placed in a restrainer with a 2×3 cm hole at the top. The dorsal surface of mice was exposed toward the hole of restrainer. The water at 60° C. was applied to the dorsal surface of mice for 40 seconds, followed by water at 4° C. for 45 seconds. The mice of Control group was only applied with water at 4° C. for 45 seconds. After scalding, each of the mice was then individually placed in a cage, and fed with diazepam in the drinking water (50 mg/L) for the early 7 days. The mice were monitored every day for body weight of and wound infections. […]
(§1) Wounds of each mice were photographed everyday with standardized exposure and focal lengths using a digital camera (Lumix DMC-GF1, Panasonic), and wound areas were analyzed and calculated according to the analysis as described in Example 1.

[2] = tested on: ATP; test: ATP assay in regenerated skin tissue; assay type: in vivo; details: db/db mice; 12 days post wounding; ATP colorimetric assay
Method: The process of animal experiment was the same as Example 2, except that after 12 days post wounding, skin tissues of db/db mice were homogenized and centrifuged for 10 mins with 8,000 rpm at 4° C. Supernatant from tissue lysate was filled up in the column and spun down at 1,000×g for 2 minutes. 10 μL of eluate was analyzed using ATP colorimetric assay kit (Biovision).

[3] = tested on: 3T3 cells; test: Fibroblast (3T3) cell proliferation assay; assay type: cell-based, Human; details: 72 h; dose-dependent
Method: […] fibro blast cell line 3T3 were cultured in high-glucose Dulbecco's modified Eagle's medium (DMEM) containing 10% fetal bovine serum (FBS), 4 mM L-glutamine, 2 mM sodium pyruvate and 1% penicillin/streptomycin (Invitrogen GibeoBRL, Carlsbad, Calif., USA) at 37° C. under 5% CO2. For cell proliferation assay, 3T3 cells were plated at 1×10^5 per well (6-well plate). 24 h after plating, cells were treated with indicated concentration of adenine for 72 h and the number of viable cells was counted. Cells were detached using trypsin-EDTA solution and stained with trypan blue. The living cells were counted using hemocytometer. […] Data were presented as the mean±SEM of three independent experiments.

[4] = tested on: pressure ulcer wound of C57BL/6 mice; test: Pressure ulcer healing; assay type: in vivo; details: 1 to 4,000 μM adenine in normal saline
Method: The C57BL/6 mice approximately at 8 weeks of age were purchased from the National Laboratory Animal Center (NLAC, R.O.C.). The mice were anesthetized with isoflurane using anesthesia system for rodents (Matrx™ VIP 3000 isoflurane vaporizer, Midmark). Before wounding, the dorsal surface was shaved and sterilely prepped with 70% ethanol for surgery. Dorsal skin was positioned between 2 circular magnets having 12-mm diameter for 12 hours and removed from them for 12 hours for 1 ischemia-reperfusion cycle. Pressure ulcer was created by 2 ischemia-reperfusion cycles. The force generated between the 2 magnets was 0.183N for a 5-mm skin bridge between the 2 magnets.
After 2 ischemia-reperfusion cycles, the compositions containing 1 μM to 4,000 μM adenine in normal saline or only normal saline as Control were individually applied on the pressure ulcer wound of mice once daily for 14 days.
as §1

[5] = tested on: AMPK; test: AMPK activation assay (western blot of regenerated skin tissue); assay type: in vivo; details: db/db mice, 12 days post wounding
Method: Effects of adenine on AMPK activation were evaluated based on the phosphorylation of AMPK and Acetyl-CoA carboxylase (ACC) protein upon adenine treatment. The process of animal experiment was the same as Example 2, except that after 12 days post wounding, skin tissues of db/db mice were homogenized and subject to western blot analysis. Equal amount of proteins from each sample was separated by SDS-PAGE and then electroblotted on to PVDF membranes. Membranes were blocked with 3% BSA in PBS for 60 mins and incubated with an anti-phospho-AMPK (Thr172) antibody (1:2000, Cell Signaling), an anti-AMPK antibody (1:2000, Cell Signaling), an anti-ACC antibody (1:1000, Cell Signaling) or an anti-phospho-ACC antibody (1:1000, Cell Signaling) at 4° C. overnight followed by the corresponding secondary antibody for 1 h at room temperature (RT). Immunoreactive bands were detected by enhanced chemiluminescence (ECL; Pierce, Rockford, Ill., USA) and recorded using Kodak film (Rochester, N.Y., USA). The detected signals were scanned and then quantified using ImageJ software.

[6] = tested on: full-thickness excisional skin wounds of C57BL/6J mice; test: Excisional skin wound healing and scar formation; assay type: in vivo
Method: C57BL/6J mice were maintained at 22° C. under a 12-h light/dark cycle. The experiments were performed with 12-weeks old mice. After anesthetized by an intraperitoneal injection of ketamine ([…]) and xylazine (100 mg/kg), 6-mm full-thickness excisional skin wounds was made on the backs of mice using 6-mm skin biopsy punches. Immediately after wounding, 1 μM to 4000 μM of adenine in […] saline or saline alone was applied to the wound bed. The skin wounds were then covered by semipermeable transparent dressing and fixed to the skin. The mice were treated with adenine or vehicle for 14 days and then sacrificed. The scar formation was assessed by Masson's trichrome staining to observe the fibrosis process and the collagen framework of the healed wound (Fixed by 4% paraformaldehyde).

[7] = tested on: diabetic wound of db/db mice; test: Diabetic wound healing, 0.02% adenine gel on splinted full thickness wound; assay type: in vivo; details: 0.02% adenine in a form of gel, once daily for 15 days
Method: The BKS. Cg-Dock7^m+/+Lepr^db/Jnarl (db/db) male mice at 8 weeks of age were purchased from the National Laboratory Animal Center (NLAC, R.O.C.). A total number of 10 mice with healthy and intact skin were used for the test for diabetic wound healing. The average±SEM body weight of the mice was 34.5±1.5 g. All mice had fasting blood glucose levels over 300 mg/dL.
The mice were housed individually in stainless steel cage, and were quarantined and acclimated for at least one week prior to test for diabetic wound healing. The temperature and relative humidity were in the range stipulated in the protocol at 21±2° C. and 55±10%, respectively. A 12-h/12-h light/dark cycle was maintained with light on at 7:00 AM and off at 7:00 PM.
The method for applying the composition containing 0.02% of adenine to the diabetic wound of mice was shown as follows. The mice described in Preparation example 4 were randomly divided into two groups of five animals each and then were anesthetized with isoflurane by use of an anesthesia system for rodents (Matrx™ VIP 3000 isoflurane vaporizer, Midmark). […]
as §1

In the case of Nc1ncnc2nc[nH]c12 [Adenine, adenine], the inflammatory response [1] is reported as “efficiently decrease inflammatory response”, the “process of healing of scald burns wound” value [1] is reported as “enhance the process of healing of scald burns wound” and the “ATP level in regenerated skin tissue” value [2] is reported as “efficiently increase ATP level”. The 3T3 cell proliferation [3] was “significantly inhibited”, the “process of healing of pressure ulcer wound” value ([4]; once daily for 14 days) was “efficiently enhance the process of healing of pressure ulcer wound” and the “extent of closure versus control mice” value ([4]; after 14 day of treatment, dose-dependent) was “significantly greater”. For the same compound, the “phosphorylation level of ACC in regenerated skin tissue” value [5] was “efficiently enhance phosphorylation level”, the “phosphorylation level of AMPK in regenerated skin tissue” value [5] was “efficiently enhance phosphorylation level” and the “scar width compared to vehicle treated wounds” value ([6]; 14 days post-wounding, topical treatment, histological examination) was “significantly decreased”. For the same compound, the “extent of closure versus control mice” value ([6]; after 14 days of treatment, 1 μM to 4000 μM adenine in saline, dose-dependent) was “significantly greater” and the “process of diabetic wound healing” value [7] was “efficiently enhance the process of diabetic wound healing”.
